Reference: ChEMBL document CHEMBL1201862, “PubChem BioAssay data set” (2004)
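Briefly, cells in 96-well plates were exposed to five compound concentrations for 48 h, and endpoints were estimated by linear interpolation. GI50: concentration for 50% inhibition of growth.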 Calls of active or inactive are those of the source. Cut-off read from the data, not from the text of the source: active = GI50 up to about 1.1 µM and inactive = higher.

Key:
Experiment in all cases: NCI anticancer screen, dose series, 48 h
[1] = tested on: SK-MEL-28
[2] = tested on: SK-OV-3
[3] = tested on: CCRF-CEM
[4] = tested on: SNB-75
[5] = tested on: U-251
[6] = tested on: A498
[7] = tested on: SF-539
[8] = tested on: A549
[9] = tested on: MOLT-4
[10] = tested on: LXFL 529
[11] = tested on: Malme-3M
[12] = tested on: SF-295
[13] = tested on: KM12
[14] = tested on: UACC-62
[15] = tested on: 786-0
[16] = tested on: HT-29
[17] = tested on: SK-MEL-5
[18] = tested on: SR

Compound	GI50 [1]	GI50 [2]	GI50 [3]	GI50 [4]	GI50 [5]	GI50 [6]	GI50 [7]	GI50 [8]	GI50 [9]	GI50 [10]	GI50 [11]	GI50 [12]	GI50 [13]	GI50 [14]	GI50 [15]	GI50 [16]	GI50 [17]	GI50 [18]
CC(=O)OCC1OC(OC2CC3C(C)(C)C(OC(C)=O)CC[C@]3(C)C3CCC45CC4(CC[C@H]5C(C)CC(O)[C@@H](O)C(C)(C)O)[C@]23C)C(O)C(O)C1O (some centres not stated)	7.4 µM (inactive)	5.83 µM (inactive)	6.46 µM (inactive)	6.18 µM (inactive)	6.28 µM (inactive)	7 µM (inactive)	7.31 µM (inactive)	8.02 µM (inactive)	2.36 µM (inactive)	5.65 µM (inactive)	7.69 µM (inactive)	7.93 µM (inactive)	7.85 µM (inactive)	6.25 µM (inactive)	7.82 µM (inactive)	8.05 µM (inactive)	7.13 µM (inactive)	–
O=C(O)CCCCCOc1cccnc1/C=N/NC1=NCCN1	> 100 µM (inactive)	> 100 µM (inactive)	> 100 µM (inactive)	20.7 µM (inactive)	> 100 µM (inactive)	59.6 µM (inactive)	> 100 µM (inactive)	> 100 µM (inactive)	> 100 µM (inactive)	> 100 µM (inactive)	> 100 µM (inactive)	> 100 µM (inactive)	> 100 µM (inactive)	> 100 µM (inactive)	> 100 µM (inactive)	> 100 µM (inactive)	> 100 µM (inactive)	> 100 µM (inactive)
NC(=O)N/N=C(\CCC(=O)N(Cc1ccccc1)Cc1ccccc1)CC(=O)c1ccc(F)cc1	> 100 µM (inactive)	> 100 µM (inactive)	> 100 µM (inactive)	–	> 100 µM (inactive)	–	23.8 µM (inactive)	37.1 µM (inactive)	> 100 µM (inactive)	> 100 µM (inactive)	> 100 µM (inactive)	> 100 µM (inactive)	> 100 µM (inactive)	> 100 µM (inactive)	27.2 µM (inactive)	> 100 µM (inactive)	> 100 µM (inactive)	> 100 µM (inactive)
O=C1c2ccccc2C(=O)C1C(c1ccc([N+](=O)[O-])cc1)C1C(=O)c2ccccc2C1=O	29 µM (inactive)	> 100 µM (inactive)	32.4 µM (inactive)	38.6 µM (inactive)	30.3 µM (inactive)	–	73.8 µM (inactive)	> 100 µM (inactive)	36.9 µM (inactive)	30.8 µM (inactive)	> 100 µM (inactive)	> 100 µM (inactive)	90.8 µM (inactive)	32.6 µM (inactive)	> 100 µM (inactive)	> 100 µM (inactive)	> 100 µM (inactive)	28.2 µM (inactive)
O=C(CSc1nnc(-c2ccc(/N=C\c3ccc(Cl)cc3)cc2)o1)Nc1ccccc1[N+](=O)[O-]	> 100 µM (inactive)	> 100 µM (inactive)	> 100 µM (inactive)	> 100 µM (inactive)	> 100 µM (inactive)	–	–	> 100 µM (inactive)	> 100 µM (inactive)	> 100 µM (inactive)	> 100 µM (inactive)	> 100 µM (inactive)	> 100 µM (inactive)	> 100 µM (inactive)	> 100 µM (inactive)	> 100 µM (inactive)	> 100 µM (inactive)	> 100 µM (inactive)
CCCCCCCCCCCC(=O)OCC1OC(n2cc(F)c(=O)[nH]c2=O)C(N)C(OC(=O)CCCCCCCCCCC)C1O (configuration not stated)	> 100 µM (inactive)	> 100 µM (inactive)	37.2 µM (inactive)	49.7 µM (inactive)	> 100 µM (inactive)	> 100 µM (inactive)	69.7 µM (inactive)	> 100 µM (inactive)	27 µM (inactive)	33.9 µM (inactive)	> 100 µM (inactive)	> 100 µM (inactive)	45.4 µM (inactive)	> 100 µM (inactive)	> 100 µM (inactive)	> 100 µM (inactive)	0.59 µM (active)	34.4 µM (inactive)
CCOC(=O)N1CCC(=O)C(CNC23CC4CC(CC(C4)C2)C3)C1 (configuration not stated)	18.2 µM (inactive)	> 100 µM (inactive)	16.9 µM (inactive)	–	> 100 µM (inactive)	> 100 µM (inactive)	> 100 µM (inactive)	> 100 µM (inactive)	13.9 µM (inactive)	18.3 µM (inactive)	17.7 µM (inactive)	> 100 µM (inactive)	> 100 µM (inactive)	> 100 µM (inactive)	15.6 µM (inactive)	22.4 µM (inactive)	80.2 µM (inactive)	21.7 µM (inactive)
O=C(CCc1nnc(S)[nH]1)Nc1ccccc1Cl	> 100 µM (inactive)	> 100 µM (inactive)	> 100 µM (inactive)	> 100 µM (inactive)	> 100 µM (inactive)	> 100 µM (inactive)	> 100 µM (inactive)	> 100 µM (inactive)	> 100 µM (inactive)	> 100 µM (inactive)	> 100 µM (inactive)	> 100 µM (inactive)	> 100 µM (inactive)	> 100 µM (inactive)	> 100 µM (inactive)	> 100 µM (inactive)	> 100 µM (inactive)	> 100 µM (inactive)
